Results published in patent publication US11667678B2, “Peptides for the treatment of COVID-19” (priority 2019, dated 2023).

How the values were obtained:
Assay type in all cases: cell-based
[1] = tested on: human A549 lung cells challenged with Delta variant SARS-CoV-2 spike S1
[2] = tested on: human A549 lung cell line stimulated with Omicron variant SARS-CoV-2 spike S1
[3] = tested on: human A549 lung cells challenged with UK variant (Alpha or N501Y) SARS-CoV-2 spike S1
[4] = tested on: human A549 lung cells challenged with South Africa variant (E484K) SARS-CoV-2 spike S1

Molecule	IL-6 promoter-driven luciferase activity (reporter activity) [1]	Omicron variant spike S1-induced expression of TNFα and IL-1β (mRNA and promoter-luciferase activity) [2]	IL-6 promoter-driven luciferase activity (reporter activity) [3]	IL-6 promoter-driven luciferase activity (reporter activity) [4]
CC(C)=CCO [prenol]	significant inhibition	Significant inhibition	significant inhibition	significant inhibition
O=C(O)c1ccc(O)cc1 [4HB, 4-hydroxybenzoate]	significant inhibition	Significant inhibition	significant inhibition	significant inhibition
EDLFYQ (SPIDAR peptide) [wtSPIDAR]	significant inhibition	Significant inhibition	significant inhibition	significant inhibition
